{
  "source": "PubChem BioAssay (NCI)",
  "assay_in_all_cases": "inhibition of tumour cell growth, NCI panel, 48 h",
  "key": {"U251 CNS": {"test_system": "U251 CNS"}, "786-0 renal": {"test_system": "786-0 renal"}, "CCRF-CEM leukemia": {"test_system": "CCRF-CEM leukemia"}, "OVCAR-4 ovarian": {"test_system": "OVCAR-4 ovarian"}, "UACC-257 melanoma": {"test_system": "UACC-257 melanoma"}, "NCI-H226 lung": {"test_system": "NCI-H226 lung"}, "UACC-62 melanoma": {"test_system": "UACC-62 melanoma"}, "SK-MEL-5 melanoma": {"test_system": "SK-MEL-5 melanoma"}, "HCC-2998 colon": {"test_system": "HCC-2998 colon"}, "A498 renal": {"test_system": "A498 renal"}, "K-562 leukemia": {"test_system": "K-562 leukemia"}, "KM12 colon": {"test_system": "KM12 colon"}, "OVCAR-8 ovarian": {"test_system": "OVCAR-8 ovarian"}, "HT29 colon": {"test_system": "HT29 colon"}, "EKVX NSCLC": {"test_system": "EKVX NSCLC"}, "DU-145 prostate": {"test_system": "DU-145 prostate"}, "HOP-62 NSCLC": {"test_system": "HOP-62 NSCLC"}, "HCT-116 colon": {"test_system": "HCT-116 colon"}, "MCF7 breast": {"test_system": "MCF7 breast"}},
  "note": "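Five compound concentrations were applied to cells in 96-well plates for 48 hours; endpoints were derived by simple linear interpolation of the resulting dose-response curve. The concentration for full growth arrest is given as TGI.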",
  "data": [
    {"compound": "O=C1CSC(c2ccccc2[N+](=O)[O-])N1c1ccc(-c2ccc(-n3c(-c4ccccc4)nc4ccccc4c3=O)cc2)cc1", "note": "(configuration not stated)", "values": [
      {"measurement": "TGI", "setting": "U251 CNS", "result": "> 100", "unit": "µM"},
      {"measurement": "TGI", "setting": "786-0 renal", "result": "> 100", "unit": "µM"},
      {"measurement": "TGI", "setting": "CCRF-CEM leukemia", "result": "> 100", "unit": "µM"},
      {"measurement": "TGI", "setting": "OVCAR-4 ovarian", "result": "> 100", "unit": "µM"},
      {"measurement": "TGI", "setting": "UACC-257 melanoma", "result": "> 100", "unit": "µM"},
      {"measurement": "TGI", "setting": "NCI-H226 lung", "result": "> 100", "unit": "µM"},
      {"measurement": "TGI", "setting": "UACC-62 melanoma", "result": "> 100", "unit": "µM"},
      {"measurement": "TGI", "setting": "SK-MEL-5 melanoma", "result": "> 100", "unit": "µM"},
      {"measurement": "TGI", "setting": "HCC-2998 colon", "result": "> 100", "unit": "µM"},
      {"measurement": "TGI", "setting": "A498 renal", "result": "> 100", "unit": "µM"},
      {"measurement": "TGI", "setting": "K-562 leukemia", "result": "> 100", "unit": "µM"},
      {"measurement": "TGI", "setting": "KM12 colon", "result": "> 100", "unit": "µM"},
      {"measurement": "TGI", "setting": "OVCAR-8 ovarian", "result": "> 100", "unit": "µM"},
      {"measurement": "TGI", "setting": "HT29 colon", "result": "> 100", "unit": "µM"},
      {"measurement": "TGI", "setting": "EKVX NSCLC", "result": "> 100", "unit": "µM"},
      {"measurement": "TGI", "setting": "DU-145 prostate", "result": "> 100", "unit": "µM"},
      {"measurement": "TGI", "setting": "HOP-62 NSCLC", "result": "> 100", "unit": "µM"},
      {"measurement": "TGI", "setting": "HCT-116 colon", "result": "> 100", "unit": "µM"},
      {"measurement": "TGI", "setting": "MCF7 breast", "result": "> 100", "unit": "µM"}
    ]},
    {"compound": "COc1ccccc1C1ON=C(c2ccc([N+](=O)[O-])cc2)N1C12CC3CC(CC(C3)C1)C2", "note": "(configuration not stated)", "values": [
      {"measurement": "TGI", "setting": "U251 CNS", "result": "> 100", "unit": "µM"},
      {"measurement": "TGI", "setting": "786-0 renal", "result": "> 100", "unit": "µM"},
      {"measurement": "TGI", "setting": "CCRF-CEM leukemia", "result": "> 100", "unit": "µM"},
      {"measurement": "TGI", "setting": "OVCAR-4 ovarian", "result": "> 100", "unit": "µM"},
      {"measurement": "TGI", "setting": "UACC-257 melanoma", "result": "> 100", "unit": "µM"},
      {"measurement": "TGI", "setting": "NCI-H226 lung", "result": "> 100", "unit": "µM"},
      {"measurement": "TGI", "setting": "UACC-62 melanoma", "result": "> 100", "unit": "µM"},
      {"measurement": "TGI", "setting": "SK-MEL-5 melanoma", "result": "> 100", "unit": "µM"},
      {"measurement": "TGI", "setting": "HCC-2998 colon", "result": "> 100", "unit": "µM"},
      {"measurement": "TGI", "setting": "A498 renal", "result": "> 100", "unit": "µM"},
      {"measurement": "TGI", "setting": "K-562 leukemia", "result": "> 100", "unit": "µM"},
      {"measurement": "TGI", "setting": "KM12 colon", "result": "> 100", "unit": "µM"},
      {"measurement": "TGI", "setting": "OVCAR-8 ovarian", "result": "> 100", "unit": "µM"},
      {"measurement": "TGI", "setting": "HT29 colon", "result": "> 100", "unit": "µM"},
      {"measurement": "TGI", "setting": "EKVX NSCLC", "result": "> 100", "unit": "µM"},
      {"measurement": "TGI", "setting": "DU-145 prostate", "result": "> 100", "unit": "µM"},
      {"measurement": "TGI", "setting": "HOP-62 NSCLC", "result": 71.9, "unit": "µM"},
      {"measurement": "TGI", "setting": "HCT-116 colon", "result": "> 100", "unit": "µM"},
      {"measurement": "TGI", "setting": "MCF7 breast", "result": "> 100", "unit": "µM"}
    ]},
    {"compound": "CC1(C)OC(=O)N(c2ccccc2)C12C=Cc1cccc([N+](=O)[O-])c1O2", "note": "(configuration not stated)", "values": [
      {"measurement": "TGI", "setting": "U251 CNS", "result": "> 100", "unit": "µM"},
      {"measurement": "TGI", "setting": "786-0 renal", "result": "> 100", "unit": "µM"},
      {"measurement": "TGI", "setting": "CCRF-CEM leukemia", "result": "> 100", "unit": "µM"},
      {"measurement": "TGI", "setting": "OVCAR-4 ovarian", "result": "> 100", "unit": "µM"},
      {"measurement": "TGI", "setting": "UACC-257 melanoma", "result": "> 100", "unit": "µM"},
      {"measurement": "TGI", "setting": "NCI-H226 lung", "result": "> 100", "unit": "µM"},
      {"measurement": "TGI", "setting": "UACC-62 melanoma", "result": "> 100", "unit": "µM"},
      {"measurement": "TGI", "setting": "SK-MEL-5 melanoma", "result": "> 100", "unit": "µM"},
      {"measurement": "TGI", "setting": "HCC-2998 colon", "result": "> 100", "unit": "µM"},
      {"measurement": "TGI", "setting": "A498 renal", "result": "> 100", "unit": "µM"},
      {"measurement": "TGI", "setting": "K-562 leukemia", "result": "> 100", "unit": "µM"},
      {"measurement": "TGI", "setting": "KM12 colon", "result": "> 100", "unit": "µM"},
      {"measurement": "TGI", "setting": "OVCAR-8 ovarian", "result": "> 100", "unit": "µM"},
      {"measurement": "TGI", "setting": "HT29 colon", "result": "> 100", "unit": "µM"},
      {"measurement": "TGI", "setting": "EKVX NSCLC", "result": "> 100", "unit": "µM"},
      {"measurement": "TGI", "setting": "DU-145 prostate", "result": "> 100", "unit": "µM"},
      {"measurement": "TGI", "setting": "HOP-62 NSCLC", "result": "> 100", "unit": "µM"},
      {"measurement": "TGI", "setting": "HCT-116 colon", "result": "> 100", "unit": "µM"},
      {"measurement": "TGI", "setting": "MCF7 breast", "result": "> 100", "unit": "µM"}
    ]}
  ]
}
